Tests used:
[1] = system: long-term potentiation (LTP) in hippocampal slice of Tg2576 induced AD mouse; test: LTP induction in hippocampal slice of Tg2576 induced AD mouse; assay type: cell-based; conditions: 7-month-old Tg2576 mouse hippocampal slice, 50 μM compound
Procedure: (§1) The mice of Example 1 were anesthetized and decapitated to excise brains. The extracted brains were kept in a cooled artificial cerebrospinal fluid (aCSF) (124 mM NaCl, 3 mM KCl, 26 mM NaHCO3, 2 mM CaCl2, 1 mM MgSO4, 10 mM Glucose, 1.25 mM NaH2PO4, and 2 mM CaCl2) saturated with 95% oxygen. Hippocampal slices were sampled from the brains, and the hippocampal slice samples were prepared with a thickness of 400 μm. Then, the hippocampal slice samples were recovered in the aCSF (124 mM NaCl, 3 mM KCl, 26 mM NaHCO3, 2 mM CaCl2, 1 mM MgSO4, 10 mM Glucose, 1.25 mM NaH2PO4, and 2 mM CaCl2) saturated with 95% oxygen at a temperature of 22 to 25° C. for 1 hour, and then used in the experiment.
(§2) For LTP induction, the hippocampal slice samples were located in a recording chamber, respectively, and then were observed by analyzing a field excitatory postsynaptic potential (fEPSP) by stimulation of Schaffer-Collateral fiber, while applying stimulations to the samples with 100 Hz every 200 ms, and the experiment was performed for 90 minutes. During the experiment, the aCSF was supplied by flowing with a rate of 2 to 3 ml/min at 30° C., and the obtained experimental results were compared using the ANOVA test known in the art. The obtained results are illustrated in FIGS. 1 to 7.
(§3) In order to examine effects of avenanthramide C according to the present invention on the LTD in a hippocampal slice of a 7-month-old Tg2576 induced AD mouse, an LTP comparison experiment was performed using a hippocampal slice of a gene manipulated mouse in the same method as Experimental Example 1, and the results thereof are illustrated in FIGS. 12A and 12B.
as §3, with “B methyl ester” for “C”, “performed in the same method as Experimental Example 1” for “performed”, “mouse,” for “mouse in the same method as Experimental Example 1,”, “16A” for “12A”, “16B. […]” for “12B.”

[2] = system: long-term potentiation (LTP) in hippocampal slice of C57BL/6 mouse; test: LTP induction (fEPSP, Schaffer-Collateral stimulation) in hippocampal slices treated with amyloid-β; assay type: cell-based
Procedure: as §1, §2
In order to examine effects of avenanthramide C methyl ester according to the present invention on the LTD in a hippocampal slice of a mouse, an LTP comparison experiment was performed in the same method as Experimental Example 1, and the results thereof are illustrated in FIGS. 14A to 14C.
An LTP comparison experiment was performed by treating the samples with amyloid-β and β-glucan in amounts as illustrated in Table 2 below two hours before the experiment by using the same method as in Experimental Example 1, except that β-glucan was used instead of avenanthramide C according to the present invention. The obtained results are illustrated in FIGS. 18 to 21.

GSK3β [3] = test: GSK3β activity by western blotting (GSK3αβ and phosphorylated GSK3β S9) in hippocampal slices treated with amyloid-β; assay type: cell-based, mouse
Procedure: as §1
Thereafter, RIPA [50 mM Tris-HCl (PH 7.5), 150 mM NaCl, 1% Nonidet P-40, 0.5% sodium deoxycholate, 0.1% SDS, 1 mM phenylmethylsulfonyl fluoride (PMSF), 1 mM DTT, and 2 μg of leupeptin and aprotinin, respectively, were dissolved therein. The crushed cells were centrifuged with 12,000 g at 4° C. for 20 minutes, and the resulting soluble fractions were denatured in a Laemmli buffer and subjected to sodium dodecyl sulfate-polyacrylamide gel electrophoresis (SDS-PAGE). After gel electrophoresis, the separated proteins were transferred to a polyvinylidene difluoride (PVDF) membrane using electroblotting. The membrane was blocked with AMRESCO, RAPIDBLOCK solution (pH 7) and subjected to blotting by using enhanced chemiluminescence (ECL). For blotting, an antibody for GSK3αβ and an antibody for phosphorylated GSK3β (S9) were used. The obtained results are illustrated in FIGS. 8 and 9. GSK3β is an enzyme whose activity is inhibited by the phosphorylation of serine residue 9, and is known as a modulator of a wide range of functions such as energy metabolism, cell proliferation, apoptosis and the like.
In order to examine effects of avenanthramide C methyl ester according to the present invention on activity of GSK3β in a hippocampal slice of a mouse, the same western blotting as Experimental Example 2 was performed, and the results thereof are illustrated in FIG. 15.

[4] = system: long-term potentiation (LTP) in hippocampal slice of 5×FAD induced AD mouse; test: LTP induction in hippocampal slice of 5×FAD induced AD mouse; assay type: cell-based
Procedure: as §1
as §2, with “7. […]” for “7.”

GSK3β [5] = test: GSK3β activity by western blotting in hippocampal slice of 5×FAD induced AD mouse; assay type: cell-based; conditions: 4-month-old 5×FAD mouse hippocampal slice, 50 μM compound, versus untreated
Procedure: as §1
(§4) Thereafter, RIPA [50 mM Tris-HCl (PH 7.5), 150 mM NaCl, 1% Nonidet P-40, 0.5% sodium deoxycholate, 0.1% SDS, 1 mM phenylmethylsulfonyl fluoride (PMSF), 1 mM DTT, and 2 μg of leupeptin and aprotinin, respectively, were dissolved therein. The crushed cells were centrifuged with 12,000 g at 4° C. for 20 minutes, and the resulting soluble fractions were denatured in a Laemmli buffer and subjected to sodium dodecyl sulfate-polyacrylamide gel electrophoresis (SDS-PAGE). After gel electrophoresis, the separated proteins were transferred to a polyvinylidene difluoride (PVDF) membrane using electroblotting. […]

GSK3β [6] = test: GSK3β activity by western blotting in hippocampal slice of Tg2576 induced AD mouse; assay type: cell-based; conditions: 7-month-old Tg2576 mouse hippocampal slice, 50 μM compound, versus untreated
Procedure: as §1, §4

[7] = hippocampal slice treated with 500 nM amyloid-β and 50 μM compound together
[8] = hippocampal slice treated with 500 nM amyloid-β and 500 μM compound together

For `O=C(/C=C/c1ccc(O)cc1)Nc1ccc(O)cc1C(=O)O` [avenanthramide A], the LTP induction [1] was “induced”.

For `COc1cc(/C=C/C(=O)Nc2ccc(O)cc2C(=O)O)ccc1O` [avenanthramide B], the LTP induction [1] was “slightly induced”.

With `COC(=O)c1cc(O)ccc1NC(=O)/C=C/c1ccc(O)c(O)c1` [avenanthramide C methyl ester] the LTP induction [2, 7] was “induced” and the “activity of GSK3β” value (GSK3β [3]; [7]) was “inhibited”.

In the case of `O=C(/C=C/c1ccc(O)c(O)c1)Nc1ccc(O)cc1C(=O)O` [avenanthramide C], the LTP induction ([2]; hippocampal slice treated with 500 nM amyloid-β and 10 μM compound together) is reported as “not induced”, the LTP induction [2, 7] is reported as “induced” and the LTP induction [2, 8] is reported as “induced”. The LTP induction ([2]; hippocampal slice treated with only 50 μM compound, no amyloid-β) was “induced”, the LTP induction ([2]; hippocampal slice treated with only 500 μM compound, no amyloid-β) was “induced” and the “toxicity in hippocampal slice (LTP experiment)” value ([2]; only 500 μM compound, no amyloid-β) was “not exhibiting toxicity”. The “toxicity in hippocampal slice (GSK3β experiment)” value (GSK3β [3]; 500 nM amyloid-β and 500 μM compound together) was “without toxicity”, the “activity of GSK3β” value (GSK3β [3]; [7]) was “inhibiting the activity of GSK3β” and the “activity of GSK3β” value (GSK3β [3]; [8]) was “inhibited”. For the same compound, the LTP induction ([4]; 4-month-old 5×FAD mouse hippocampal slice, 50 μM compound) was “induced”, the “activity of GSK3β” value (GSK3β [5]) was “more inhibited” and the LTP induction [1] was “induced”. The “activity of GSK3β” value (GSK3β [6]) was “more inhibited”.

β-glucan [reference compound] was tested, and the LTP induction ([2]; hippocampal slice treated with 500 nM amyloid-β and 80 μg/ml β-glucan together) was “not induced”, the LTP induction ([2]; hippocampal slice treated with only 80 μg/ml β-glucan, no amyloid-β) was “induced” and the LTP induction ([4]; induced AD mouse hippocampal slice, 80 μg/ml β-glucan) was “not induced”.

From patent US11141451B2, “Pharmaceutical composition and health functional food comprising oat extract avenanthramide C or derivative thereof as effective ingredient for prevention or treatment of neurodegenerative disease” (INDUSTRY FOUNDATION OF CHONNAM NATIONAL UNIVERSITY, priority 2016, dated 2021)
